Results taken from PubChem BioAssay (NCI).
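Dose response: 5 concentrations. Exposure: 48 h. Format: 96-well plates. Endpoint: linear interpolation; highest concentration if not reached. The concentration for full growth arrest is given as TGI.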

Legend:
Test in all cases: NCI tumour cell line growth inhibition, 48 h
A549 NSCLC = test system: A549 NSCLC
CAKI-1 renal = test system: CAKI-1 renal
K-562 leukemia = test system: K-562 leukemia
MDA-MB-231 breast = test system: MDA-MB-231 breast
MDA-MB-435 = test system: MDA-MB-435
NCI-H522 lung = test system: NCI-H522 lung
OVCAR-4 ovarian = test system: OVCAR-4 ovarian
SK-MEL-5 melanoma = test system: SK-MEL-5 melanoma
SNB-75 CNS = test system: SNB-75 CNS
UO-31 renal = test system: UO-31 renal

Structure (SMILES) | TGI (A549 NSCLC) [µM] | TGI (CAKI-1 renal) [µM] | TGI (K-562 leukemia) [µM] | TGI (MDA-MB-231 breast) [µM] | TGI (MDA-MB-435) [µM] | TGI (NCI-H522 lung) [µM] | TGI (OVCAR-4 ovarian) [µM] | TGI (SK-MEL-5 melanoma) [µM] | TGI (SNB-75 CNS) [µM] | TGI (UO-31 renal) [µM]
Cc1cc(=O)oc2c(CN(CCCl)CCCl)c(O)ccc12 | > 100 | > 100 | > 100 | > 100 | > 100 | 36.4 | > 100 | > 100 | > 100 | > 100
CCOC(=O)C1=C(C)N(c2ccc(Cl)cc2)C2(O)C=CC(=O)C3C(=O)N(c4ccccc4)C(=O)C132 (stereo not drawn) | 10.5 | 4.72 | 9.03 | 4.59 | 6.83 | 2.38 | 3.25 | 3.47 | 3.25 | 3.31
C=C1CC2C[C@H](OS(=O)(=O)c3ccc(C)cc3)C(C1)N2C (stereo partly drawn) | > 100 | > 100 | > 100 | > 100 | > 100 | > 100 | > 100 | > 100 | > 100 | > 100
CN1C(=O)[C@](C)(Cc2ccc(F)cc2)N(C(=O)OC(C)(C)C)[C@@H]1C(C)(C)C | > 100 | > 100 | 65.7 | > 100 | > 100 | 46.9 | > 100 | 37.6 | > 100 | > 100
Nc1nc(Cl)cc(NCC2CC(O)(CO)C2)n1 (stereo not drawn) | > 100 | > 100 | > 100 | > 100 | > 100 | > 100 | > 100 | > 100 | > 100 | > 100
CSC(=N/N=C(\C)c1ccc(S(=O)(=O)N(C)c2ccccc2)cc1)SC | > 100 | > 100 | > 100 | > 100 | > 100 | > 100 | > 100 | > 100 | > 100 | > 100
O=C(O)CCC(NC(=O)/C(=C/c1ccccc1)NC(=O)c1ccccc1)C(=O)O (stereo not drawn) | > 100 | > 100 | > 100 | > 100 | > 100 | > 100 | > 100 | > 100 | > 100 | > 100
N#Cc1c(NC(=S)Nc2ccccc2)sc2c1CCCC2 |  | > 100 | > 100 | > 100 | > 100 | > 100 | > 100 | > 100 | > 100 | > 100
NC(=O)c1ccc(S(=O)(=NS(=O)(=O)c2ccccc2)c2ccc(C(N)=O)cc2)cc1 | > 100 | > 100 | > 100 | > 100 | > 100 | > 100 | > 100 | > 100 | > 100 | > 100
O=C1CCc2c(sc3ncnc(Nc4cccc(Br)c4)c23)C1 | 24.5 | 12.5 | > 22.7 | 11.5 | 3.82 | 6.17 | 8.63 | 3.67 | 12.5 | 5.23
Cc1nc(C)c(C(=O)NNC(=O)c2ccccc2)cc1C(=O)NNC(=O)c1ccccc1 | > 100 | > 100 | > 100 | > 100 | > 100 | > 100 | > 100 | > 100 | > 10 | > 100
CC1=NNC(N)=N/C1=C\C(Sc1ccc(Cl)cc1)c1ccc(Cl)cc1Cl (stereo not drawn) | 59.4 | > 67.1 | 56.3 | > 52.3 | > 76.6 | 18.6 | 44.6 | 40.1 | 32.9 | 27
O=C1CSC2=NC3=C(COC/C3=C\c3ccc(F)cc3)C(c3ccc(F)cc3)N12 (stereo not drawn) |  | > 100 | > 100 | > 100 | > 100 | > 100 | > 100 | > 100 | > 100 | > 100
C[C@@H]1CC(=O)[C@@]2(C)[C@](O)(CCC3O[C@]32C)[C@@]12CC(c1ccoc1)OC2=O (stereo partly drawn) | > 100 | > 100 | > 100 | > 100 | > 100 | > 100 | > 100 | > 100 | > 100 | > 100
CCOC(=O)CCC1(C(=O)O[C@@H]2C[C@H](C)CC[C@H]2C(C)C)CCCCC1=O (stereo partly drawn) | > 100 | > 100 | > 100 | > 100 | > 100 | > 100 | > 100 | > 100 | > 100 | > 100
NC(=O)c1nnc2c(F)cccc2c1N | > 100 | > 100 | > 100 | > 100 | > 100 | > 100 | > 100 | > 100 | > 100 | > 100
O=C1CSC(c2cc3cc(Br)ccc3nc2Cl)N1c1ccc(F)c(Cl)c1 (stereo not drawn) | > 50 | > 50 | > 50 | > 50 | > 50 | > 50 | > 50 | > 50 | > 50 | > 50
